Experimental data: PubChem BioAssay AID328 (DTP/NCI, 2004)
Values joined by “and” are separate entries in the source; they are usually repeats but may differ in a detail not shown here. Equal values may be shown once. Inconclusive results and toxic doses are left out.

System: BDF1 mice, P388 leukemia ip, median survival T/C
Experiment: NCI In Vivo Anticancer Drug Screen. Data for tumor model P388 Leukemia (intraperitoneal) in B6D2F1 (BDF1) mice
Conditions: endpoint: median survival time, higher = longer survival
How it was run: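 In tumour-bearing mice, survival after compound treatment is set against the vehicle group and given as a quotient.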

[1] = dose: 100.0 mg/kg/injection, schedule: Q01DX009 (ip), vehicle: saline with Tween-80
[2] = dose: 100.0 mg/kg/injection, schedule: Q01DX009 (ip), vehicle: saline
[3] = dose: 200.0 mg/kg/injection, schedule: Q01DX009 (ip), vehicle: saline with Tween-80
[4] = dose: 400.0 mg/kg/injection, schedule: Q01DX009 (ip), vehicle: saline with Tween-80
[5] = dose: 50.0 mg/kg/injection, schedule: Q01DX009 (ip), vehicle: saline with Tween-80
[6] = dose: 100.0 mg/kg/injection, schedule: Q04DX003 (ip), vehicle: saline with Tween-80
[7] = dose: 200.0 mg/kg/injection, schedule: Q04DX003 (ip), vehicle: saline with Tween-80
[8] = dose: 400.0 mg/kg/injection, schedule: Q04DX003 (ip), vehicle: saline with Tween-80
[9] = dose: 50.0 mg/kg/injection, schedule: Q04DX003 (ip), vehicle: saline with Tween-80
[10] = dose: 12.5 mg/kg/injection, schedule: Q01DX009 (ip), vehicle: water
[11] = dose: 50.0 mg/kg/injection, schedule: Q04DX003 (ip), vehicle: saline
[12] = dose: 12.5 mg/kg/injection, schedule: Q01DX009 (ip), vehicle: Klucel (hydroxypropylcellulose) (HPC)

SMILES: O=C1NC(=O)C(=O)N1
- T/C (dose: 100.0 mg/kg/injection, schedule: Q01DX001 (ip), vehicle: saline): 109 % of control
- T/C [1]: 100 % of control
- T/C [2]: 100 % of control
- T/C (dose: 100.0 mg/kg/injection, schedule: Q04DX003 (ip), vehicle: saline): 110 % of control
- T/C (dose: 200.0 mg/kg/injection, schedule: Q01DX001 (ip), vehicle: saline): 100 % of control
- T/C [3]: 104 % of control
- T/C (dose: 200.0 mg/kg/injection, schedule: Q01DX009 (ip), vehicle: saline): 100 % of control
- T/C (dose: 200.0 mg/kg/injection, schedule: Q04DX003 (ip), vehicle: saline): 95 % of control
- T/C (dose: 400.0 mg/kg/injection, schedule: Q01DX001 (ip), vehicle: saline): 100 % of control
- T/C [4]: 95 % of control
- T/C (dose: 400.0 mg/kg/injection, schedule: Q01DX009 (ip), vehicle: saline): 100 % of control
- T/C (dose: 400.0 mg/kg/injection, schedule: Q04DX003 (ip), vehicle: saline): 120 % of control

SMILES: O=C1NC2C(NC(=O)N2Cl)N1Cl (centres undefined)
- T/C (dose: 12.5 mg/kg/injection, schedule: Q01DX009 (ip), vehicle: saline with Tween-80): 103 % of control
- T/C (dose: 25.0 mg/kg/injection, schedule: Q01DX009 (ip), vehicle: saline with Tween-80): 100 % of control
- T/C [5]: 103 % of control

SMILES: O=C(/C=C/c1ccncc1)c1ccccc1
- T/C (dose: 100.0 mg/kg/injection, schedule: Q01DX001 (ip), vehicle: saline with Tween-80): 122 % of control
- T/C (dose: 200.0 mg/kg/injection, schedule: Q01DX001 (ip), vehicle: saline with Tween-80): 113 % of control

SMILES: Cc1ccc(C(=O)/C=C\c2ccccc2)cc1
- T/C [1]: 104 % of control
- T/C [6]: 103 % of control
- T/C [3]: 104 % of control
- T/C [7]: 103 % of control
- T/C [4]: 104 % of control
- T/C [8]: 103 % of control

SMILES: COC(=O)C12OCC34C(CC5=C(C)C(=O)C(O)=CC5(C)C3C(O)C1O)OC(=O)C(OC(=O)/C=C(\C)C(C)C)C24 (centres undefined)
- T/C (dose: 31.0 micrograms/kg/injection, schedule: Q01DX009 (ip), vehicle: saline + alcohol): 120 % of control
- T/C (dose: 62.0 micrograms/kg/injection, schedule: Q01DX009 (ip), vehicle: saline + alcohol): 115 % of control
- T/C (dose: 250.0 micrograms/kg/injection, schedule: Q01DX009 (ip), vehicle: saline + alcohol): 100 % of control
- T/C (dose: 500.0 micrograms/kg/injection, schedule: Q01DX009 (ip), vehicle: saline + alcohol): 105 % of control
- T/C (dose: 1000.0 micrograms/kg/injection, schedule: Q01DX009 (ip), vehicle: saline + alcohol): 120 % of control
- T/C (dose: 2000.0 micrograms/kg/injection, schedule: Q01DX009 (ip), vehicle: saline + alcohol): 110 % of control

SMILES: CC(=O)N(C)Nc1ccccc1
- T/C [9]: 100 % of control
- T/C [6]: 90 % of control and 100 % of control
- T/C [7]: 105 % of control

SMILES: C[n+]1c(-c2ccc(Cl)c(Cl)c2)c2cc(N)ccc2c2ccccc21
- T/C (dose: 0.78 mg/kg/injection, schedule: Q01DX009 (ip), vehicle: water): 107 % of control
- T/C (dose: 0.78 mg/kg/injection, schedule: Q04DX003 (ip), vehicle: water): 100 % of control
- T/C (dose: 1.56 mg/kg/injection, schedule: Q01DX009 (ip), vehicle: water): 114 % of control
- T/C (dose: 1.56 mg/kg/injection, schedule: Q04DX003 (ip), vehicle: water): 100 % of control
- T/C (dose: 3.12 mg/kg/injection, schedule: Q04DX003 (ip), vehicle: water): 106 % of control
- T/C (dose: 6.25 mg/kg/injection, schedule: Q04DX003 (ip), vehicle: water): 106 % of control
- T/C [10]: 109 % of control

SMILES: CCN(CCO)CC(C)Nc1ccc([N+](=O)[O-])c2sc3ccccc3c(=O)c12 (centres undefined)
- T/C (dose: 33.0 mg/kg/injection, schedule: Q01DX009 (ip), vehicle: saline with Tween-80): 195 % of control
- T/C [5]: 177 % of control
- T/C (dose: 66.0 mg/kg/injection, schedule: Q04DX003 (ip), vehicle: saline with Tween-80): 162 % of control
- T/C (dose: 75.0 mg/kg/injection, schedule: Q01DX009 (ip), vehicle: saline with Tween-80): 95 % of control
- T/C [6]: 191 % of control and 200 % of control
- T/C (dose: 150.0 mg/kg/injection, schedule: Q04DX003 (ip), vehicle: saline with Tween-80): 220 % of control
- T/C [7]: 113 % of control
- T/C [8]: 95 % of control

SMILES: COc1ccc(CC[N+]2=Cc3cc(OC)c(OC)cc3CC2)cc1OC
- T/C (dose: 6.25 mg/kg/injection, schedule: Q01DX009 (ip), vehicle: saline): 104 % of control and 111 % of control
- T/C (dose: 12.5 mg/kg/injection, schedule: Q01DX009 (ip), vehicle: saline): 100 % of control
- T/C (dose: 12.5 mg/kg/injection, schedule: Q04DX003 (ip), vehicle: saline): 109 % of control
- T/C (dose: 25.0 mg/kg/injection, schedule: Q01DX009 (ip), vehicle: saline): 100 % of control and 104 % of control
- T/C (dose: 25.0 mg/kg/injection, schedule: Q04DX003 (ip), vehicle: saline): 117 % of control
- T/C (dose: 50.0 mg/kg/injection, schedule: Q01DX009 (ip), vehicle: saline): 95 % of control and 103 % of control and 107 % of control
- T/C [11]: 101 % of control and 103 % of control
- T/C [2]: 98 % of control
- T/C (dose: 150.0 mg/kg/injection, schedule: Q01DX009 (ip), vehicle: saline): 95 % of control

SMILES: O=C(NC(=S)Nc1ccccc1C(=O)O)c1ccccc1
- T/C [9]: 104 % of control
- T/C [6]: 100 % of control
- T/C [7]: 90 % of control

SMILES: CC(C)OC(=O)Nc1ccccc1Cl
- T/C [11]: 95 % of control

SMILES: CCOC(=O)CCC(C)(c1ccc(O)cc1)c1ccc(O)cc1
- T/C (dose: 50.0 mg/kg/injection, schedule: Q01DX009 (ip), vehicle: gum acacia): 95 % of control
- T/C (dose: 100.0 mg/kg/injection, schedule: Q01DX009 (ip), vehicle: gum acacia): 108 % of control
- T/C (dose: 100.0 mg/kg/injection, schedule: Q04DX003 (ip), vehicle: gum acacia): 104 % of control
- T/C (dose: 200.0 mg/kg/injection, schedule: Q01DX009 (ip), vehicle: gum acacia): 100 % of control
- T/C (dose: 200.0 mg/kg/injection, schedule: Q04DX003 (ip), vehicle: gum acacia): 104 % of control
- T/C (dose: 400.0 mg/kg/injection, schedule: Q04DX003 (ip), vehicle: gum acacia): 104 % of control

SMILES: C[n+]1c(-c2cc(N)cc(C(F)(F)F)c2)c2cc(N)ccc2c2ccc(N)cc21
- T/C (dose: 6.25 mg/kg/injection, schedule: Q01DX009 (ip), vehicle: water): 150 % of control
- T/C [10]: 181 % of control
- T/C (dose: 25.0 mg/kg/injection, schedule: Q01DX009 (ip), vehicle: water): 95 % of control

SMILES: C[C@]12CC[C@@H]3c4ccc(O)cc4CC[C@H]3[C@@H]1C[C@@H](O)[C@@H]2O
- T/C [12]: 90 % of control
- T/C (dose: 25.0 mg/kg/injection, schedule: Q01DX009 (ip), vehicle: Klucel (hydroxypropylcellulose) (HPC)): 100 % of control
- T/C (dose: 50.0 mg/kg/injection, schedule: Q01DX009 (ip), vehicle: Klucel (hydroxypropylcellulose) (HPC)): 109 % of control
- T/C (dose: 100.0 mg/kg/injection, schedule: Q04DX003 (ip), vehicle: Klucel (hydroxypropylcellulose) (HPC)): 104 % of control
- T/C (dose: 200.0 mg/kg/injection, schedule: Q04DX003 (ip), vehicle: Klucel (hydroxypropylcellulose) (HPC)): 104 % of control
- T/C (dose: 400.0 mg/kg/injection, schedule: Q04DX003 (ip), vehicle: Klucel (hydroxypropylcellulose) (HPC)): 100 % of control

SMILES: Cc1cc(N(CCOS(C)(=O)=O)CCOS(C)(=O)=O)ccc1C=Nc1ccc(-c2csc(Cc3ccccc3)n2)cc1
- T/C (dose: 8.25 mg/kg/injection, schedule: Q01DX009 (ip), vehicle: Klucel (hydroxypropylcellulose) (HPC)): 100 % of control and 211 % of control
- T/C (dose: 12.4 mg/kg/injection, schedule: Q01DX009 (ip), vehicle: Klucel (hydroxypropylcellulose) (HPC)): 225 % of control
- T/C [12]: 250 % of control
- T/C (dose: 18.7 mg/kg/injection, schedule: Q01DX009 (ip), vehicle: Klucel (hydroxypropylcellulose) (HPC)): 155 % of control
- T/C (dose: 18.75 mg/kg/injection, schedule: Q01DX009 (ip), vehicle: Klucel (hydroxypropylcellulose) (HPC)): 227 % of control and 178 % of control
- T/C (dose: 28.13 mg/kg/injection, schedule: Q01DX009 (ip), vehicle: Klucel (hydroxypropylcellulose) (HPC)): 99 % of control

SMILES: O=[N+]([O-])c1ccc(Nc2ccc(Cl)c(Cl)c2)c2c1no[n+]2[O-]
- T/C (dose: 17.5 mg/kg/injection, schedule: Q01DX009 (ip), vehicle: saline with Tween-80): 88 % of control
- T/C (dose: 35.0 mg/kg/injection, schedule: Q01DX009 (ip), vehicle: saline with Tween-80): 92 % of control
- T/C (dose: 70.0 mg/kg/injection, schedule: Q01DX009 (ip), vehicle: saline with Tween-80): 88 % of control
